Test results from PMC8910697, “Development of VPC-70619, a Small-Molecule N-Myc Inhibitor as a Potential Therapy for Neuroendocrine Prostate Cancer” (International Journal of Molecular Sciences, 2022).

Assays:
Type in all cases: cell-based
[1] = test system: N-Myc-Max transcription activity (LNCaP-NMYC cells); test: Myc transcription assay (Cignal Myc reporter, luciferase) in LNCaP-NMYC cells; conditions: for IC50: Homo sapiens, LNCaP, Table 1, transcriptional assay in LNCaP cells overexpressing N-Myc, read-out: IC50; for transcription inhibition activity (in words): LNCaP-NMYC, screened at 10 µM and 5 µM
Procedure: To determine the optimal substitutions on the free phenyl ring, we used the active scaffold for a second substructure search against the ZINC15 database to identify a set of 181 analogues for further validation (VPC-70617 to -70799, presented in Supplementary Table S1). Compounds were tested for their inhibition of a N-Myc-Max luciferase transcription activity assay at 5 and 10 µM Figure 2a. Herein, we inspected all the proposed substitutions on the scaffold to discern the features required to construct a possible SAR model for inhibitors targeting N-Myc-Max/DBD complex (Figure 2b).
LNCaP-NMYC cells were transfected using TransIT-2020 transfection reagents per the manufacturer’s protocol. Cells were plated at a density of 10,000 cells per well of a 96-well plate. Following 24 h treatment with 5 µM or 10 µM of the compounds, the Myc reporter activity was measured using the Cignal Myc Reporter Assay Kit from Qiagen (#336841) (Hilden, Germany) per the manufacturer’s instructions.

[2] = test system: N-Myc-Max transcription activity (LNCaP-NMYC cells); test: as above
HO15.19 cells = test: Cell viability counter-screen (CellTiter-Glo), Myc-negative HO15.19; conditions: for inhibition at 10 µM: Rattus norvegicus, HO15.19, 10 µM, Myc-negative specificity control
Procedure: (§1) The 54 compounds were tested at 10 µM for their inhibition of the IMR32 human neuroblastoma cell line, in which the MYCN gene is amplified and actively expressed (Table 3). HO15.19 cell line (Myc-negative) was used in parallel as a compound specificity control.
(§2) Viability of N-Myc positive (IMR32and NCI-H660) and negative (HO15.19) cells were determined using the CellTiter-Glo Luminescent Cell Viability Assay (Promega cat. G7570) (Madison, WI, USA). Cells were seeded into a 96-well white plate with a clear bottom: 10,000 cells per well for the IMR32 cells cultured in EMEM supplemented with 10% FBS, 2000 HO15.19 cells per well in Eagle’s minimum essential medium (EMEM) supplemented with 10% FBS, and 2000 cells per well for the NCI-H660 neuroendocrine cells cultured in RPMI supplemented 5% FBS, 1% Insulin-Transferrin-Selenium (Thermo Fisher, 41400-045), 10nM b-estradiol (Sigma, E8875), 10nM hydrocortisone (Sigma H0888) and 1% matrigel. Following 24 h incubation, the cells were treated with serial dilutions of the derivatives along with the respective parental compound starting at 25 μM for 72 h. Cell Titer Glo was added to each well at a ratio of 1:1 and incubated on a shaker at RT for 2 min. Luminescence and IC50 was measured with the TECAN InfiniteM200 plate reader (Männedorf, Switzerland).

IMR32 cells = test: Cell viability (CellTiter-Glo), IMR32; conditions: Homo sapiens, IMR-32
Procedure: as §1, §2

SMILES | IC50 [1] | inhibition at 25 µM [2] | transcription inhibition activity (in words) [1] | cytotoxicity in Myc-negative HO15.19 (in words) (HO15.19 cells; counter-screen) | inhibition at 10 µM (IMR32 cells) | inhibition at 10 µM (HO15.19 cells)
O=C(NCc1cnn(Cc2ccccc2)c1)[C@@H]1COc2ccccc2O1 [compound 70215] | 20 µM | 92% |  |  |  | 
O=C(CCc1c[nH]c2ccccc12)Nc1nc2ccccc2[nH]1 [compound 70223] | 10 µM | 103% |  |  |  | 
C[C@H](CCc1ccccc1)NC(=O)[C@H]1CCCN(C(=O)CCc2c[nH]c3ccccc23)C1 [compound 70314] | 15 µM | 93% |  |  |  | 
CC[C@@H]1Oc2cc(S(=O)(=O)N(C)CC(=O)N(C)Cc3ccccc3)c(C)cc2NC1=O [compound 70381] | 20 µM | 74% |  |  |  | 
O=C(CCN1C(=O)/C(=C\c2ccccc2)SC1=S)NCCc1c[nH]c2ccccc12 [compound 70388] | 20 µM | 77% |  |  |  | 
Cc1cccc(-c2cc(C(=O)Nc3ccc(S(=O)(=O)N4CCCCC4)cc3)n[nH]2)c1O [compound 70390] | 9 µM | 97% |  |  |  | 
Fc1ccccc1CNC(=S)Nc1cccc(C(F)(F)F)c1 [compound 70465] | 10 µM | 92% |  |  |  | 
FC(F)(F)c1cc(Br)cc(NC(=S)NCc2cccs2)c1 [compound 70495] | 5 µM | 100% |  |  |  | 
O=C(Nc1cccc(C(F)(F)F)c1)Nc1cccc(C(F)(F)F)c1 [compound 70511] | 2 µM | 102% | promising inhibitory activity | highly cytotoxic profile |  | 
N#Cc1ccc(NNC(=O)c2ccc(F)c(I)c2)c(C(F)(F)F)c1 [compound 70726] |  |  | strong increase in inhibition activity |  | 75.6% | 66.2%
N#Cc1ccc(NNC(=O)c2cc(F)c(Cl)cc2Cl)c(C(F)(F)F)c1 [compound 70730] |  |  | recovered the inhibition activity |  | 87.5% | 77.1%
CC(C)(c1ccc(C(=O)NNc2ccc(C#N)cc2C(F)(F)F)cc1)C(F)(F)F [compound 70733] |  |  | active |  | 57.4% | 57.8%
N#Cc1ccc(NNC(=O)c2ccc(F)c(Br)c2)c(C(F)(F)F)c1 [compound 70734] |  |  | strong increase in inhibition activity |  | 86.5% | 77.8%
N#Cc1ccc(NNC(=O)c2cc(F)cc(Br)c2)c(C(F)(F)F)c1 [compound 70739] |  |  | better inhibition activity |  | 87.2% | 75.8%
N#Cc1ccc(NNC(=O)c2cc(F)c(Cl)cc2F)c(C(F)(F)F)c1 [compound 70741] |  |  | recovered the inhibition activity |  | 16.4% | 14.5%
N#Cc1ccc(NNC(=O)c2ccc(I)c(F)c2)c(C(F)(F)F)c1 [compound 70742] |  |  | better inhibition activity |  | 26.1% | 71.8%
N#Cc1ccc(NNC(=O)c2ccc(Br)c(F)c2)c(C(F)(F)F)c1 [compound 70743] |  |  | strong increase in inhibition activity |  | 38.7% | 74.9%
N#Cc1ccc(NNC(=O)c2cc(C(F)(F)F)cc(C(F)(F)F)c2)c(C(F)(F)F)c1 [compound 70756] |  |  | better inhibition activity |  | 95.7% | 84.1%
N#Cc1ccc(NNC(=O)c2cc(Cl)cc([N+](=O)[O-])c2)c(C(F)(F)F)c1 [compound 70761] |  |  | better inhibition activity |  | 93.3% | 81%
N#Cc1ccc(NNC(=O)c2cc(F)c(Cl)c(F)c2)c(C(F)(F)F)c1 [compound 70767] |  |  | strong increase in inhibition activity |  | 31.6% | 40.3%
N#Cc1ccc(NNC(=O)c2cc(Cl)cc(Br)c2F)c(C(F)(F)F)c1 [compound 70768] |  |  | high transcription inhibition activity |  | 35.3% | 39.8%
N#Cc1ccc(NNC(=O)c2cc(C(F)(F)F)ccc2F)c(C(F)(F)F)c1 [compound 70769] |  |  | high transcription inhibition activity |  | 32.2% | 28.2%
N#Cc1ccc(NNC(=O)c2cc(F)c(Br)c(Cl)c2)c(C(F)(F)F)c1 [compound 70775] |  |  | strong increase in inhibition activity |  | 62.4% | 65.1%
N#Cc1ccc(NNC(=O)c2cc(Cl)cc(F)c2Br)c(C(F)(F)F)c1 [compound 70776] |  |  | high transcription inhibition activity |  | 27.4% | 26.1%
N#Cc1ccc(NNC(=O)c2cc(OC(F)F)cc(OC(F)F)c2)c(C(F)(F)F)c1 [compound 70792] |  |  | maintained good transcription inhibition activity |  | 84.9% | 79.5%
N#Cc1ccc(NNC(=O)c2cc(F)cc(C(F)(F)F)c2)c(C(F)(F)F)c1 [compound 70794] |  |  | better inhibition activity |  | 89.2% | 80.7%
N#Cc1ccc(NNC(=O)c2ccc(C(F)(F)F)cc2O)c(C(F)(F)F)c1 [compound 70797] |  |  | activity was maintained |  | 24.7% | 34.2%
